Laboratory results from ChEMBL document CHEMBL5136993, “Identification of potent α-amylase inhibitors via dynamic combinatorial chemistry” (Bioorg Med Chem, 2022).

Key:
Alpha amylase [1] = biological target: T1, Alpha amylase (Homo sapiens, UniProt P0DUB6); test: Inhibition of human saliva alpha-amylase using starch as substrate preincubated for 15 mins followed by substrate addition and measured after 15 mins
T1 sequence (P0DUB6 whole entry): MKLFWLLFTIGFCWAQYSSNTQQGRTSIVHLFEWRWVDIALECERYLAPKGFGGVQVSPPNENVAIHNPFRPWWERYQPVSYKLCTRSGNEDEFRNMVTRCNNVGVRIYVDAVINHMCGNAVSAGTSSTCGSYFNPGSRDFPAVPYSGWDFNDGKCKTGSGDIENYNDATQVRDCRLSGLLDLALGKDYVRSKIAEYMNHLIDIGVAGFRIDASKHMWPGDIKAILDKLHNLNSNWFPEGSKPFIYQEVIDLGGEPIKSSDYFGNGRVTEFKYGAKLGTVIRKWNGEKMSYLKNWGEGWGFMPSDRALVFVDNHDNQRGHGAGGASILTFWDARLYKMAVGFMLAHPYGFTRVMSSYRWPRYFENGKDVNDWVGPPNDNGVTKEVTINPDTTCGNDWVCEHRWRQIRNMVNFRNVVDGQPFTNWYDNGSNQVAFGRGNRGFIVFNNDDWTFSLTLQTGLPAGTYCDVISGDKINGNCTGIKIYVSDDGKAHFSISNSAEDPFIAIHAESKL

[2] = tested on: O=C(N/N=C/c1coc2cc(Br)ccc2c1=O)c1nc(-c2cccc(Br)c2)cs1; test: Competitive inhibition of human saliva alpha-amylase assessed as Km using starch as substrate preincubated for 15 mins followed by substrate addition and measured after 15 mins by Lineweaver-Burk plot analysis; conditions: time 30.0 min
Alpha amylase [3] = biological target: T1, Alpha amylase; test: Competitive inhibition of human saliva alpha-amylase assessed as inhibition constant using starch as substrate preincubated for 15 mins followed by substrate addition and measured after 15 mins by dixon plot analysis; type: tissue-based
[4] = Cytotoxicity against HEK293 cells assessed as reduction in cell growth incubated for 12 hrs by CCK-8 assay; type: toxicity, cell-based; conditions: human

| IC50 (Alpha amylase [1]) [µM] | Ki (Alpha amylase [3]) [µM] | Compound | Km [2] [µM] | CC50 at 12 h [4] [µM] |
| --- | --- | --- | --- | --- |
| 19 | – | Cc1ccc2occ(/C=N/NC(=O)c3nc(-c4ccc(F)cc4)cs3)c(=O)c2c1 | – | – |
| – | – | Alpha amylase (Homo sapiens) (from UniProt P0DUB6) | 2140 | – |
| 4.46 | 5.4 | O=C(N/N=C/c1coc2cc(Br)ccc2c1=O)c1nc(-c2cccc(Br)c2)cs1 | – | > 100 |
| 6.1 | – | O=C(N/N=C/c1coc2cc(Br)ccc2c1=O)c1nc(-c2ccc(Cl)cc2)cs1 | – | 68 |
